What is called EC50 is the concentration giving half of the maximal effect. In general, Emax refers to the greatest response seen or fitted, relative to the assay's reference. The Papp A→B is the apparent permeability from the apical to the basolateral side of a cell layer.

Series [1] deals with T1, human Ox2R (Homo sapiens, UniProt O43614).
T1 construct: The gene encoding hOx2R was subcloned into the expression plasmid pcDNA5/FRT/TO; expressed in transfected cells; host or cells: CHO Flp-In cells (pcDNA5/FRT/TO with pOG44 Flp recombinase vector, hygromycin B selection)
T1 sequence (O43614 1-444): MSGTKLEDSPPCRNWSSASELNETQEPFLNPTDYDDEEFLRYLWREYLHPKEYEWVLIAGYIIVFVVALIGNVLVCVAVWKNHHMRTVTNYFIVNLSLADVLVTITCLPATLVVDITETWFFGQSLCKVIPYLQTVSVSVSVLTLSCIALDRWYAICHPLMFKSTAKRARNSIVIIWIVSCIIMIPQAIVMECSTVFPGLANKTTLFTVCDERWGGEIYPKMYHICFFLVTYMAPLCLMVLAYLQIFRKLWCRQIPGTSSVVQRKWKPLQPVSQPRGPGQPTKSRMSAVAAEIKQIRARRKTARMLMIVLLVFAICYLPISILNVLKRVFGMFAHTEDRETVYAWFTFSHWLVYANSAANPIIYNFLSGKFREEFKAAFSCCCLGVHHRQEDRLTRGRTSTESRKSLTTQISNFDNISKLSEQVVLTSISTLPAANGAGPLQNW
In words: Measurement of OX2R agonist activity (cell-based calcium release assay). Particulars: hOx2R-CHO Flp-In cells, n≥2 tests; for EC50: intracellular calcium, read-out: EC50; for Emax / Emax (%): normalized to assay buffer (0%) and 10 μM Danavorexton (100%); for Emax: read-out: Emax (%). The procedure, abridged:
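CHO Flp-In cells stably expressing human Ox2R, dye-loaded 1 h at 37 °C in HBSS/20 mM HEPES pH 7.4 with 2.5 mM probenecid and 10 mM CaCl2, then stimulated with compound.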
A general note: Calcium assays in cells follow changes in intracellular calcium, usually with a dye or a luminescent sensor.

The target of series [2] is T2, P-gp (MDR1) (Homo sapiens, UniProt P08183).
T2 construct: host or cells: MDCKII (canine kidney) cells transfected with human MDR1
In words: MDR1-MDCKII assay (bidirectional transport). Type of series: in vitro ADME. Conditions: MDCK-MDR1, pH 7.4, test compound 0.5 μM, MDR1-MDCKII monolayer; for efflux ratio at 0.5 μM: read-out: ER (efflux ratio); for Papp A→B at 0.5 μM: apical to basolateral. How it is done:
Bidirectional transport in MDCKII cells transfected with human MDR1 were assessed according to previously published methodology (Langthaler, K. et al. (2024). Fluids Barriers CNS, 21 (11): 1-15). In brief, cells obtained from the Netherlands Cancer Institute were maintained at 37° C. in α-MEM containing 10% FBS, 100 μg/mL penicillin-G, 100 μg/mL streptomycin, 1% non-essential amino acid under culture conditions of 5% CO2 and 95% relative humidity. Transport of test compound (0.5 μM, 0.4% DMSO final concentrations) across the cell monolayer was determined in triplicate on a single test occasion along with controls for low and high permeability (fenoterol and metoprolol, 2 μM) and P-gp efflux (digoxin, 10 μM). Each compound was loaded onto either the apical side (75 μL) or basolateral side (275 μL) with transport buffer (1% BSA in HBSS with 10 mM HEPES (pH 7.4)) on the opposing side of the cells (e.g. 50 μL or 250 μL on the apical or basolateral side). A sample (25 μL) from the donor compartment was taken 30 s after test compound is loaded onto the plate, resulting in a final incubation volume of 50 μL and 250 μL on apical and basolateral sides respectively. At the end of the incubation period, samples (75 μL) were taken from both sides. The donor samples (25 μL) were firstly diluted with transport buffer (50 μL) and then all samples were quenched in acetonitrile (125 μL) containing internal analytical standards. After centrifugation (20 min, 3220 g, 4° C.) the supernatants were analysed by LC-MS/MS. The apparent permeability coefficient (Papp) and efflux ratio (ER) were calculated using the equations below; where dCr/dt is the compound concentration in the receiver chamber as a function of time (μM/s); Vr is the solution volume in the receiver chamber; A is the surface area of the cell monolayer; C0 is the initial concentration in the donor compartment; and Papp A-B and Papp B-A refer to the apparent permeabilities in the respective directions. Compound permeability is classified as low, moderate, or high according to Papp value binning classifications: <1, 1 to 6 or >6×10^−6 cm/s, respectively. The ER is employed to classify compounds as unlikely, possible, or likely P-gp substrates when ER was: <1.5, 1.5 to <2 or >2, respectively.

T2 sequence (P08183 whole entry): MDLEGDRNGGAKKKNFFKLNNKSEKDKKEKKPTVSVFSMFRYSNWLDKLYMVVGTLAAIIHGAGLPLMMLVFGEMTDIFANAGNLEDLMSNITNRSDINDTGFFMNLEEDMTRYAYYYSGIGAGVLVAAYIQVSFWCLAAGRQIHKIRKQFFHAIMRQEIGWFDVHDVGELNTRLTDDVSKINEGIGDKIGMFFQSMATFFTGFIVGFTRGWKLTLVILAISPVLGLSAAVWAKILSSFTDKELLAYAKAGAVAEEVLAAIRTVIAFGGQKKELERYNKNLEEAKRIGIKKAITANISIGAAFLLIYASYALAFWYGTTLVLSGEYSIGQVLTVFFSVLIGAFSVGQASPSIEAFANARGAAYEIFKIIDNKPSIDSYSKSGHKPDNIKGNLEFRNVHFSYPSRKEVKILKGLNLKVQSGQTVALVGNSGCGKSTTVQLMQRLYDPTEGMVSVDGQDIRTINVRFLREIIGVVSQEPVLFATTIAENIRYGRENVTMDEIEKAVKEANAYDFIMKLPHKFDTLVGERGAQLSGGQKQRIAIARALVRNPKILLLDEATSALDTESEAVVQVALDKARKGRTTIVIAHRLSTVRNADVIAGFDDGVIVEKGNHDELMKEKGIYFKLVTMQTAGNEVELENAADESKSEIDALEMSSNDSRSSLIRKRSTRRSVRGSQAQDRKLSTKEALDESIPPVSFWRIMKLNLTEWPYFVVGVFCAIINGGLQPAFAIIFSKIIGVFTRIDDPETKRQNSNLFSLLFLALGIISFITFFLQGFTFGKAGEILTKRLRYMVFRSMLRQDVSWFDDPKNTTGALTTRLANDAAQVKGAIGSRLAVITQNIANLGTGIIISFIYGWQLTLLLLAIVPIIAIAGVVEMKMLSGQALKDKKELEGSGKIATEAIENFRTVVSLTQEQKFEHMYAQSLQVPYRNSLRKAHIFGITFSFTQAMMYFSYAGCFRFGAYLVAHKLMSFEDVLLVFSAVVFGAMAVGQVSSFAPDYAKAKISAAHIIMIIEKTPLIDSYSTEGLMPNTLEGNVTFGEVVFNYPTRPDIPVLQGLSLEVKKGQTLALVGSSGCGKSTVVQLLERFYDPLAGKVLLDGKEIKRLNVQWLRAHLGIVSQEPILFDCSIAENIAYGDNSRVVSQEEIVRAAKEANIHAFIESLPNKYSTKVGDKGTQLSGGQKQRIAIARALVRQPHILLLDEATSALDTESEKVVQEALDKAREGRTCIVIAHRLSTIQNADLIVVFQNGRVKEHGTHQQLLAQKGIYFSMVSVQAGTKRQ

Take `CS(=O)(=O)N[C@H]1CC[C@@]2(Cc3ccc(F)c(c3)-c3cccc(F)c3OCc3coc2n3)C1` [Example 8, N-[(1′S,14R)-6,19-difluorospiro[8,12-dioxa-21-azatetracyclo[14.3.1.110,13.02,7]henicosa-1(19),2,4,6,10,13(21),16(20),17-octaene-14,3′-cyclopentane]-1′-yl]methanesulfonamide]: in series [1], the EC50 was 64 pM and the Emax was 99%. Further, in series [2], the efflux ratio at 0.5 μM is 1.3 and the Papp A→B at 0.5 μM amounted to 11.5 ×10⁻⁶ cm/s.

In the case of `CS(=O)(=O)N[C@H]1CC[C@@]2(Cc3ccc(Cl)c(c3)-c3cccc(F)c3OCc3coc2n3)C1` [Example 16, N-[(1′S,14R)-19-chloro-6-fluoro-spiro[8,12-dioxa-21-azatetracyclo[14.3.1.110,13.02,7]henicosa-1(19),2,4,6,10,13(21),16(20),17-octaene-14,3′-cyclopentane]-1′-yl]methanesulfonamide], in series [1], the EC50 stood at 51 pM and the Emax is 99%. In series [2], the efflux ratio at 0.5 μM amounted to 1 and the apparent permeability from apical to basolateral (Papp A→B) at 0.5 μM is 9.31 ×10⁻⁶ cm/s.

As for `CCS(=O)(=O)N[C@H]1CC[C@@]2(Cc3ccc(F)c(c3)-c3cccc(F)c3OCc3coc2n3)C1` [Example 21, N-[(1′S,14R)-6,19-difluorospiro[8,12-dioxa-21-azatetracyclo[14.3.1.110,13.02,7]henicosa-1(19),2,4,6,10,13(21),16(20),17-octaene-14,3′-cyclopentane]-1′-yl]ethanesulfonamide], in series [1], the EC50 amounted to 83 pM and the Emax is 100%. In series [2], the efflux ratio at 0.5 μM is 1.4 and the Papp A→B at 0.5 μM was 9.89 ×10⁻⁶ cm/s.

For `CS(=O)(=O)N[C@H]1CC[C@]2(CC1)Cc1ccc(F)c(c1)-c1cccc(F)c1OCc1ccnc2n1` [Example 108, trans-N-(6,20-difluorospiro[8-oxa-13,22-diazatetracyclo[15.3.1.110,14.02,7]docosa-1(21),2,4,6,10,12,14(22),17,19-nonaene-15,4′-cyclohexane]-1′-yl)methanesulfonamide], in series [1], the EC50 was determined as 450 pM and the Emax was 98%.

In the case of `CS(=O)(=O)N[C@H]1CC[C@@]2(Cc3cc(c(F)cc3F)-c3cccc(F)c3OCc3nc2ns3)C1` [Example 111, N-[(1′S,14R)-6,17,19-trifluorospiro[8-oxa-11-thia-12,21-diazatetracyclo[14.3.1.110,13.02,7]henicosa-1(19),2,4,6,10(21),12,16(20),17-octaene-14,3′-cyclopentane]-1′-yl]methanesulfonamide], in series [1], the EC50 stood at 980 pM and the Emax was determined as 96%.

For the molecule `CS(=O)(=O)N[C@H]1CC[C@@]2(Cc3ccc(F)c(c3)-c3cccc(F)c3OCc3noc2n3)C1` [Example 112, N-[(1′S,14R)-6,19-difluorospiro[8,12-dioxa-11,21-diazatetracyclo[14.3.1.110,13.02,7]henicosa-1(20),2,4,6,10,13(21),16,18-octaene-14,3′-cyclopentane]-1′-yl]methanesulfonamide], in series [1], the EC50 turned out to be 1300 pM and the Emax amounted to 94%.

For `O=S(=O)(N[C@H]1CC[C@@]2(Cc3ccc(F)c(c3)-c3cccc(F)c3OCc3coc2n3)C1)C(F)(F)F` [Example 114, N-[(1′S,14R)-6,19-difluorospiro[8,12-dioxa-21-azatetracyclo[14.3.1.110,13.02,7]henicosa-1(19),2(7),3,5,10,13(21),16(20),17-octaene-14,3′-cyclopentane]-1′-yl]-1,1,1-trifluoro-methanesulfonamide], in series [1], the EC50 was 190 pM and the Emax was 110%.

With `O=S(=O)(N[C@H]1CC[C@@]2(Cc3ccc(F)c(c3)-c3cccc(F)c3OCc3coc2n3)C1)C(F)F` [Example 115, N-[(1′S,14R)-6,19-difluorospiro[8,12-dioxa-21-azatetracyclo[14.3.1.110,13.02,7]henicosa-1(20),2,4,6,10,13(21),16,18-octaene-14,3′-cyclopentane]-1′-yl]-1,1-difluoro-methanesulfonamide], in series [1], the EC50 came to 370 pM and the Emax is 97%.

On to `CS(=O)(=O)N[C@@H]1C[C@]2(Cc3ccc(F)c(c3)-c3cccc(F)c3OCc3ccnc2n3)[C@H]2C[C@@H]12` [Example 118, N-[(1′R,2′R,5′S,15R)-6,20-difluorospiro[8-oxa-13,22-diazatetracyclo[15.3.1.110,14.02,7]docosa-1(21),2,4,6,10,12,14(22),17,19-nonaene-15,4′-bicyclo[3.1.0]hexane]-2′-yl]methanesulfonamide], for which, in series [1], the EC50 came to 100 pM and the Emax amounted to 100%.

As to `CS(=O)(=O)N[C@@H]1C[C@]2(Cc3ccc(F)c(c3)-c3cc(F)cc(F)c3OCc3ccnc2n3)[C@H]2C[C@@H]12` [Example 119, N-[(1′R,2′R,5′S,15R)-4,6,20-trifluorospiro[8-oxa-13,22-diazatetracyclo[15.3.1.110,14.02,7]docosa-1(21),2,4,6,10,12,14(22),17,19-nonaene-15,4′-bicyclo[3.1.0]hexane]-2′-yl]methanesulfonamide], in series [1], the EC50 came to 520 pM and the Emax turned out to be 96%.

On to “N-[(1′S,4′S,15R)-6,20-difluoro-4′-methyl-spiro[8-oxa-13,22-diazatetracyclo[15.3.1.110,14.02,7]docosa-1(20),2,4,6,10,12,14(22),17(21),18-nonaene-15,3′-cyclopentane]-1′-yl]methanesulfonamide or N-[(1′R,4′R,15S)-6,20-difluoro-4′-methyl-spiro[8-oxa-13,22-diazatetracyclo[15.3.1.110,14.02,7]docosa-1(20),2,4,6,10,12,14(22),17(21),18-nonaene-15,3′-cyclopentane]-1′-yl]methanesulfonamide [Example 93]”, for which, in series [1], the EC50 came out at 3100 pM and the “Emax (%)” value is on record as 94%.

As for “N-[(3′R,14S)-6,17,19-trifluorospiro[8,12-dioxa-21-azatetracyclo[14.3.1.110,13.02,7]henicosa-1(19),2,4,6,10,13(21),16(20),17-octaene-1′,5′-tetrahydrofuran′-3′-yl]methanesulfonamide or N-[(3′S,14R)-6,17,19-trifluorospiro[8,12-dioxa-21-azatetracyclo[14.3.1.110,13.02,7]henicosa-1(19),2,4,6,10,13(21),16(20),17-octaene-1′,5′-tetrahydrofuran′-3′-yl]methanesulfonamide [Example 109]”, in series [1], the EC50 was found to be 1600 pM and the “Emax (%)” value came to 99%.

For the molecule “N-[(3′R,14S)-6,17,19-trifluorospiro[8,12-dioxa-21-azatetracyclo[14.3.1.110,13.02,7]henicosa-1(19),2,4,6,10,13(21),16(20),17-octaene-1′,5′-tetrahydrofuran′-3′-yl]methanesulfonamide or N-[(3′S,14R)-6,17,19-trifluorospiro[8,12-dioxa-21-azatetracyclo[14.3.1.110,13.02,7]henicosa-1(19),2,4,6,10,13(21),16(20),17-octaene-1′,5′-tetrahydrofuran′-3′-yl]methanesulfonamide [Example 110]”, in series [1], the EC50 is 320 pM and the “Emax (%)” value was 96%.

The values are drawn from patent US12590106B2, “Spiromacrocyclic orexin 2 receptor agonists” (H. Lundbeck A/S, priority 2023, dated 2026).
